Laboratory results: ChEMBL document CHEMBL1201862, “PubChem BioAssay data set” (2004)
Calls of active or inactive are those of the source.

How the values were obtained:
[1] = Counterscreen for antagonists of the orexin 1 receptor (OX1R; HCRTR1): Fluorescence-based cell-based high throughput dose response assay to identify antagonists of the parental CHO cell line. [Related pubchem assays (depositor defined):AID434989, AID435008, AID463079, AID485270, AID492963, AID492964, AID492965, AID493232, AID504699, AID504701]; assay type: functional
[2] = test system: CHO-K1; test: Counterscreen for antagonists of the orexin 1 receptor (OX1R; HCRTR1): Homogeneous time resolved fluorescence (HTRF)-based cell-based dose response assay to identify antagonists of the parental CHO-K1 cell line. [Related pubchem assays (depositor defined):AID434989, AID435008, AID463079, AID485270, AID492963, AID492964, AID492965, AID493232, AID504699, AID504701]; assay type: functional; conditions: Cricetulus griseus;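 further: potency for inhibition of ATP-stimulated IP1 production as antagonists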
[3] = target: T1, Orexin receptor type 2 (Homo sapiens, UniProt O43614); test: Counterscreen assay for antagonists of the orexin 1 receptor (OX1R; HCRTR1): Fluorescence-based cell-based dose response assay for antagonists of the orexin 2 receptor (OX2R; HCRTR2), run by assay provider.; assay type: functional
T1 sequence (O43614 whole entry): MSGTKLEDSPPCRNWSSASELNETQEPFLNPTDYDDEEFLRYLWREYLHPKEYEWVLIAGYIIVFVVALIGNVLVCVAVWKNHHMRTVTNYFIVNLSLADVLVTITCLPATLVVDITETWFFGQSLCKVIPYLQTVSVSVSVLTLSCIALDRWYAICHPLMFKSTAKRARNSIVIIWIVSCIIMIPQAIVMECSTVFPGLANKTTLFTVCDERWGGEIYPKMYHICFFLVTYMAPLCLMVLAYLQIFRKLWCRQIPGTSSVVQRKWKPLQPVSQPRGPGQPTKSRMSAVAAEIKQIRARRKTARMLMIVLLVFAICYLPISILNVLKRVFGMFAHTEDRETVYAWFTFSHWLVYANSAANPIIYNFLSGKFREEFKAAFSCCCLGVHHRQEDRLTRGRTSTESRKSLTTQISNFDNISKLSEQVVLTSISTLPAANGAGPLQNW

[4] = target: T2, Orexin/Hypocretin receptor type 1 (Homo sapiens, UniProt O43613); test: Fluorescence-based cell-based high throughput dose response assay for antagonists of the orexin 1 receptor (OX1R; HCRTR1). [Related pubchem assays (depositor defined):AID434989, AID435008, AID463079, AID485270, AID492963, AID492964, AID492965, AID493232, AID504717, AID504718]; assay type: functional
T2 sequence (O43613 whole entry): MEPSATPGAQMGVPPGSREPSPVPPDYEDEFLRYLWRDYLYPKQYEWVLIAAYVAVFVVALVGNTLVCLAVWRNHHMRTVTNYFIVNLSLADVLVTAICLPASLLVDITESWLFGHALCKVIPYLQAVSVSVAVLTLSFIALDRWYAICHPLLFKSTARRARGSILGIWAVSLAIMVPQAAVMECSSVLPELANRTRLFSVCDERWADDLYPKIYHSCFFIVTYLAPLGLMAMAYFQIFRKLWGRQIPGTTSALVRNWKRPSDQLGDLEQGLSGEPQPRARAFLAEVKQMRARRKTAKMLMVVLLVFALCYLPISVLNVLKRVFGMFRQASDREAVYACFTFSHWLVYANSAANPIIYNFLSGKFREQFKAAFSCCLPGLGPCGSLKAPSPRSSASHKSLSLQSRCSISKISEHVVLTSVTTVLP

[5] = target: T2, Orexin/Hypocretin receptor type 1; test: Homogeneous Time Resolved Fluorescence (HTRF)-based cell-based high throughput dose response assay for antagonists of the orexin 1 receptor (OX1R; HCRTR1). [Related pubchem assays (depositor defined):AID434989, AID435008, AID463079, AID485270, AID492963, AID492964, AID492965, AID493232, AID504717, AID504718]; assay type: functional
[6] = target: T1, Orexin receptor type 2; test: Counterscreen assay for antagonists of the orexin 1 receptor (OX1R; HCRTR1): Homogeneous Time Resolved Fluorescence (HTRF)-based cell-based dose response assay for antagonists of the orexin 2 receptor (OX2R; HCRTR2), run by assay provider.; assay type: functional
[7] = target: T3, Low molecular weight phosphotyrosine protein phosphatase (Homo sapiens, UniProt P24666); assay type: functional; conditions: read-out: IC50_Mean
T3 sequence (P24666 whole entry): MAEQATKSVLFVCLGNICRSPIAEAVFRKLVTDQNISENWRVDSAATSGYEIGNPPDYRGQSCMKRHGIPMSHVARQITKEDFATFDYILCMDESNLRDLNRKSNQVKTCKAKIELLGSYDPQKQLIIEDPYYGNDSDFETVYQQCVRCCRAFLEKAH

[8] = target: T3, Low molecular weight phosphotyrosine protein phosphatase; assay type: functional; conditions: read-out: IC50_Mean; remark: listed apart in the source
[9] = target: Steroidogenic factor 1 (Homo sapiens, UniProt Q13285); test: Counterscreen for inverse agonists of the liver receptor homolog-1 (LRH-1; NR5A2): Luminescence-based cell-based high throughput dose response assay to identify inverse agonists of the Steroidogenic Factor 1 Nuclear Receptor (SF1; NR5A1).; assay type: functional
Sequence of Steroidogenic factor 1 (Q13285 whole entry): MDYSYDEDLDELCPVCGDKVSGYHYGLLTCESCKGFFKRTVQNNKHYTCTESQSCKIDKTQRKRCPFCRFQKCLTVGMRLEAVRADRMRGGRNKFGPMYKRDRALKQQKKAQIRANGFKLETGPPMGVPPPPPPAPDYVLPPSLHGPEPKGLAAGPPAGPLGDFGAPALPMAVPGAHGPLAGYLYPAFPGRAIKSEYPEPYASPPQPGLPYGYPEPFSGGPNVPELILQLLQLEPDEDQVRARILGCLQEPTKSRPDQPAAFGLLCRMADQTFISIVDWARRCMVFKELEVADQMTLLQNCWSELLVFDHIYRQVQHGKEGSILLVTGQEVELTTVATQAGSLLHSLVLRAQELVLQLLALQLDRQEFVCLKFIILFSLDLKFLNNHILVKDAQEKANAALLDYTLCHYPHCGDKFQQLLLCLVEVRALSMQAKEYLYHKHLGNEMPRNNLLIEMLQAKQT

[10] = StAR promoter reporter inhibition counter-screen, dose response, counter-screen for LRH-1 inverse agonist project, cell-based, luminescence, luciferase reporter (AID 651969); assay type: functional
[11] = target: Nuclear receptor subfamily 5 group A member 2 (Homo sapiens, UniProt O00482); assay type: functional, cell-based;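 further: HEK293T cells transfected with LRH-1 and a StAR promoter luciferase reporter; potency for inhibitors that lower LRH-1 driven reporter light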
[12] = target: Genome polyprotein (dengue virus type 2, UniProt P29990); test: Dengue-2 NS5 methyltransferase inhibitors, primary screen, biochemical, confirmation dose response (AID 588689); assay type: functional
[13] = target: T4, Fatty acid synthase (Homo sapiens, UniProt P49327); test: FAS thioesterase domain inhibitors, dose response, biochemical, kinetic fluorescence intensity (AID 624326); assay type: functional;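 further: rate of fluorescence rise from hydrolysis of a fluorogenic O-methyl fluorescein ester substrate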
T4 sequence (P49327 whole entry, the tested form may be a part): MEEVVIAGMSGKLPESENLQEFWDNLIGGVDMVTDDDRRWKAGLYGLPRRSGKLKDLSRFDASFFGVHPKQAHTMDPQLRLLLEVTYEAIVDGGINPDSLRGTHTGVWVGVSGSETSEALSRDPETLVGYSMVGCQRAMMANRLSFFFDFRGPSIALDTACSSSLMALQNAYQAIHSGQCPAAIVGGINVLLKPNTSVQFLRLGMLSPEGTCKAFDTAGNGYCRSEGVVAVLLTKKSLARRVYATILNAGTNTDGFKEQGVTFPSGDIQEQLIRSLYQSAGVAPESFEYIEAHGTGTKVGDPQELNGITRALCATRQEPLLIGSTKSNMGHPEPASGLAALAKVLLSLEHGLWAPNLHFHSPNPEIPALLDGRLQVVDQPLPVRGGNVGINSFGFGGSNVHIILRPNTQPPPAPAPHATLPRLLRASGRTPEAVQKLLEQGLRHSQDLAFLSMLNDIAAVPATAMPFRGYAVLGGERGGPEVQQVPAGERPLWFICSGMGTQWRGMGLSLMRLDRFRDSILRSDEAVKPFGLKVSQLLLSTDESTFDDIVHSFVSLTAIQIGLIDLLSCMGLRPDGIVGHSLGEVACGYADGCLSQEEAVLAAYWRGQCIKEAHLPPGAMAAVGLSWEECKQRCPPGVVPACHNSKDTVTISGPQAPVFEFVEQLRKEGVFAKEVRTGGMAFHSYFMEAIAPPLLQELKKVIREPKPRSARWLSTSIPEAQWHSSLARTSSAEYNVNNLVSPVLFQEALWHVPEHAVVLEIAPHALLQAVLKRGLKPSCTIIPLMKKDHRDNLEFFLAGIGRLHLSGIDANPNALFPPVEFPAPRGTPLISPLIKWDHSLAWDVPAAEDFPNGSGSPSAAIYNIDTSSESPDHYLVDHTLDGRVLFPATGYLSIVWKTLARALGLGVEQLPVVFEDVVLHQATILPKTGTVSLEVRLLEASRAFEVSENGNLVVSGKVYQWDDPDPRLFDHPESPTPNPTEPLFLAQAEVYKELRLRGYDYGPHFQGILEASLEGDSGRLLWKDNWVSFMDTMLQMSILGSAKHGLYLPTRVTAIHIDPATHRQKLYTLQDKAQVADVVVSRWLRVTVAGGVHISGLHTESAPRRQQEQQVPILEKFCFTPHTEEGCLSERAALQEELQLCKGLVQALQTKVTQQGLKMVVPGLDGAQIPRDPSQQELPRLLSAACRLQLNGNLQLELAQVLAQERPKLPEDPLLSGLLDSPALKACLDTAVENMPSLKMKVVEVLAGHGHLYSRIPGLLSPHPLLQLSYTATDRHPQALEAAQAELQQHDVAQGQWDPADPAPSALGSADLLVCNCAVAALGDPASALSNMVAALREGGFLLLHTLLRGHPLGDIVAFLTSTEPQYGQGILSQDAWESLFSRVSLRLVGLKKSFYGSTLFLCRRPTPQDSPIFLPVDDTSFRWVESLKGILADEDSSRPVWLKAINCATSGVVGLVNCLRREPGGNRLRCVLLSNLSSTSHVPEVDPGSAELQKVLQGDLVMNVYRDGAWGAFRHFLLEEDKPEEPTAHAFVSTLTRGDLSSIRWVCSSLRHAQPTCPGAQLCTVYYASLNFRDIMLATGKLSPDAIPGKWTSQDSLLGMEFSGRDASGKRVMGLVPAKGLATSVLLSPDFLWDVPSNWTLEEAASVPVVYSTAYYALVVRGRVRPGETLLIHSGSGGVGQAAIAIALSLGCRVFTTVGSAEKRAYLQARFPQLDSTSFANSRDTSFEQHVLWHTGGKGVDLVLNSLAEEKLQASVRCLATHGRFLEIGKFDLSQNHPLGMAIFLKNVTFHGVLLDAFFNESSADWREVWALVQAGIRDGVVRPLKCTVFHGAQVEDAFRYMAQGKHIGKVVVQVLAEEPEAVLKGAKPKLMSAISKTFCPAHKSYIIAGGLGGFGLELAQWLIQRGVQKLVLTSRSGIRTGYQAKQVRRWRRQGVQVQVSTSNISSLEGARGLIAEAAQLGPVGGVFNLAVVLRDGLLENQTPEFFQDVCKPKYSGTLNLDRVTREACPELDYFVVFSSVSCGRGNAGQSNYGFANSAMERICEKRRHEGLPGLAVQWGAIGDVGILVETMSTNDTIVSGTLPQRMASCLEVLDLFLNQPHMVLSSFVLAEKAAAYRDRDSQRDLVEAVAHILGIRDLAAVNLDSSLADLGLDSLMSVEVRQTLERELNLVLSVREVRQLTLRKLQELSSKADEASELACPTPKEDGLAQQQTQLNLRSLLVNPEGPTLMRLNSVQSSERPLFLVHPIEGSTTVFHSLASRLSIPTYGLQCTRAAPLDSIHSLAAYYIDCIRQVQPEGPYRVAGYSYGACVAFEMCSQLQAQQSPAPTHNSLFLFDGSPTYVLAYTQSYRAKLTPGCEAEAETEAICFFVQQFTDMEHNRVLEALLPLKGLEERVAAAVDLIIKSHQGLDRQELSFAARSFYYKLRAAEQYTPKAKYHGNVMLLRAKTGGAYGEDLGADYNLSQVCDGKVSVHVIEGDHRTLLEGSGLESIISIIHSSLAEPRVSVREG

[14] = target: T4, Fatty acid synthase; test: FAS thioesterase domain inhibitors, dose response, biochemical, endpoint fluorescence intensity, uHTS hits (AID 624327); assay type: functional;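 further: fluorescence from hydrolysis of an O-methyl fluorescein acyl ester substrate by the enzyme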
[15] = target: T5, Rac GTPase-activating protein 1 (Homo sapiens, UniProt Q9H0H5); test: MgcRacGAP GTPase-activating activity inhibitors, confirmation, biochemical, ADP Hunter fluorescence, primary and confirmatory (AID 624330); assay type: functional
T5 sequence (Q9H0H5 whole entry): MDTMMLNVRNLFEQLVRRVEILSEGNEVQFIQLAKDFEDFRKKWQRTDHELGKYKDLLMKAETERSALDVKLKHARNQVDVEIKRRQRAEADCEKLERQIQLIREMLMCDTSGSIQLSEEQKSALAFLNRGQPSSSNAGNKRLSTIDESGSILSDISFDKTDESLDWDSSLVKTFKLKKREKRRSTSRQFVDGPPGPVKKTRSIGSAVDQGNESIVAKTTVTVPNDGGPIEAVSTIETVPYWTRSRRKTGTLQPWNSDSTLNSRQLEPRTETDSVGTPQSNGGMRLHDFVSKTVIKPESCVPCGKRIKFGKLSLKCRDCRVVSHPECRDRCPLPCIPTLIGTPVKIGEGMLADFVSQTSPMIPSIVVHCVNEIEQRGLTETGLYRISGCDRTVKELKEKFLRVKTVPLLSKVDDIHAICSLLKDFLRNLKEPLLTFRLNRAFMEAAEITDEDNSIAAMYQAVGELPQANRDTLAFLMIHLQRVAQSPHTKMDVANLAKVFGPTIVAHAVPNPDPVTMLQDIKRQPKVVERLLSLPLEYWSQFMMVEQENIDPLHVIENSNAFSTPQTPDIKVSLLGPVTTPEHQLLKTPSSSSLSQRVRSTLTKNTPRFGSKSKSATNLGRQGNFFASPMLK

[16] = target: T6, Mitochondrial peptide methionine sulfoxide reductase (Bos taurus, UniProt P54149); assay type: functional;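 on IC50: absorbance read-out, biochemical high-throughput dose-response screen for MsrA inhibitors, confirmatory; recombinant bovine MsrA coupled to E. coli TrxB with NADPH and selenocystamine; potency is for inhibitors of MsrA activity on DMSO substrate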
T6 sequence (P54149 whole entry): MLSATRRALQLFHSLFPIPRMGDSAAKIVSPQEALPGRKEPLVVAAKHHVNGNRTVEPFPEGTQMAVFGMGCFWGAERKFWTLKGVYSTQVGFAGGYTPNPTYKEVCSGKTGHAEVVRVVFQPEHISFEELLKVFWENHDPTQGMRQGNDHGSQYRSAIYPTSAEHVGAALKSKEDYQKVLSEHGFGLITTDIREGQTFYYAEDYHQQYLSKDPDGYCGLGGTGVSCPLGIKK

[17] = target: T7, Corticotropin-releasing factor receptor 2/Corticotropin-releasing factor-binding protein (Homo sapiens, UniProt P24387+Q13324); test: activators of CRF receptor 2 with binding protein – uHTS hits, confirmation (AID 602473); assay type: functional; conditions: read-out: EC50_Mean
T7 sequence (Q13324 whole entry): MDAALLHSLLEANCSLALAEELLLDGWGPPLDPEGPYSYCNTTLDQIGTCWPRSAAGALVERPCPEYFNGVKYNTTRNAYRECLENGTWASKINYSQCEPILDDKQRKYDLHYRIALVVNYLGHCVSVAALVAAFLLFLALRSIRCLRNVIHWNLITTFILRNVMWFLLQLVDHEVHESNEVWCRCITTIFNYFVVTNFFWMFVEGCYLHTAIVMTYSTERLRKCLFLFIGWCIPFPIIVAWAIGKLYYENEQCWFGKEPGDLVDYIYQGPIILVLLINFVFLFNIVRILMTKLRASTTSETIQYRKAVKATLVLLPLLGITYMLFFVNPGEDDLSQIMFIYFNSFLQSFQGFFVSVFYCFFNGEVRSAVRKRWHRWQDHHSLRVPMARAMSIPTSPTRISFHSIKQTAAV
T7 sequence (P24387 whole entry): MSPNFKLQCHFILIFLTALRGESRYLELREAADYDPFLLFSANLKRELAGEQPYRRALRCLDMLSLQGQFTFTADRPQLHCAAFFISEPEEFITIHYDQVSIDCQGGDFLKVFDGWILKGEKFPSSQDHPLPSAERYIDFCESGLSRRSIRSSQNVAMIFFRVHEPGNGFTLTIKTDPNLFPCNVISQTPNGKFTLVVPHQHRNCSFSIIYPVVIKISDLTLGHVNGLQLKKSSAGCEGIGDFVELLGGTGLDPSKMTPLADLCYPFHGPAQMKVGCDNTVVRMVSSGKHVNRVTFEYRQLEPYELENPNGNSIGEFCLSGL

[18] = target: T7, Corticotropin-releasing factor receptor 2/Corticotropin-releasing factor-binding protein; test: Dose Response confirmation of uHTS hits for small molecule antagonists of the CRF-binding protein and CRF-R2 receptor complex.; assay type: functional; conditions: read-out: IC50_Mean
[19] = target: T8, Sentrin-specific protease 1 (Homo sapiens, UniProt Q9P0U3); test: potency of human SENP1 inhibitors, dose response, biochemical, kinetic FRET (AID 651697); assay type: functional; conditions: read-out: IC50_Mean
T8 sequence (Q9P0U3 whole entry, the tested form may be a part): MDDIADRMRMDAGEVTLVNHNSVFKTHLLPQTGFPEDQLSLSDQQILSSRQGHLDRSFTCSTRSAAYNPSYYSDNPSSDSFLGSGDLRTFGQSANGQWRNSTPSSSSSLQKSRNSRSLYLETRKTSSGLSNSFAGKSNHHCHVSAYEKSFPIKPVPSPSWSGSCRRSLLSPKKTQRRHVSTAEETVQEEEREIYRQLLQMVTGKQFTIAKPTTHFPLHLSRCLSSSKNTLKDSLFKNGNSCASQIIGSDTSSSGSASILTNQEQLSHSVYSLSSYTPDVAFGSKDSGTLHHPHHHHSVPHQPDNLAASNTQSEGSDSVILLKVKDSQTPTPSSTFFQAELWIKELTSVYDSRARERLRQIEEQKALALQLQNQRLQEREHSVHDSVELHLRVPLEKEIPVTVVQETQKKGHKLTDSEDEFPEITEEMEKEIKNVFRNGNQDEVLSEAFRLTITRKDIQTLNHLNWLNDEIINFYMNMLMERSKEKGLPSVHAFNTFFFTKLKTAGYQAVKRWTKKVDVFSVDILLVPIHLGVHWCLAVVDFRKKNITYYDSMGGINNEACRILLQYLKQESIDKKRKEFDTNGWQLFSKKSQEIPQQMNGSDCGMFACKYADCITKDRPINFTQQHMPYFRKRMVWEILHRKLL

[20] = target: T8, Sentrin-specific protease 1; test: Dose response confirmation of small molecule inhibitors of the catalytic domain of the SUMO protease, SENP1 in a FRET assay.; assay type: functional; conditions: read-out: IC50_Mean
[21] = target: T6, Mitochondrial peptide methionine sulfoxide reductase; test: Absorbance-based biochemical high throughput dose response assay for activators of Methionine sulfoxide reductase A (MsrA).; assay type: functional
[22] = target: DNA (cytosine-5)-methyltransferase 1 (Homo sapiens, UniProt P26358); test: DNMT1 methyltransferase inhibitors, confirmation, biochemical, fluorescent molecular beacon (AID 602386); assay type: functional
[23] = target: Melanin-concentrating hormone receptor 1 (Homo sapiens, UniProt Q99705); test: Late-stage fluorescence-based counterscreen for antagonists of the G-protein coupled receptor 7 (GPR7): cell-based dose response assay to identify antagonists of the melanin-concentrating hormone receptor 1 (MCHR1) Set 6.; assay type: functional
Sequence of Melanin-concentrating hormone receptor 1 (Q99705 whole entry): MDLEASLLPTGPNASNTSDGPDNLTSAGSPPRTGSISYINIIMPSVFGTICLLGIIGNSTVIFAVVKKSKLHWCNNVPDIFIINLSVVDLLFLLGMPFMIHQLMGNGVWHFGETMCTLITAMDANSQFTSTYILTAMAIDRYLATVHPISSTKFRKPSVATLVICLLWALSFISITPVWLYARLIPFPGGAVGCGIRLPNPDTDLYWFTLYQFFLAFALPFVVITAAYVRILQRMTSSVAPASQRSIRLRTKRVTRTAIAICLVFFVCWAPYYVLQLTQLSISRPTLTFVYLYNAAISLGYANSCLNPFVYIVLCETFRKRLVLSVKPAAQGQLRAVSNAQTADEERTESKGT

[24] = target: T9, Neuropeptides B/W receptor type 1 (Homo sapiens, UniProt P48145); test: GPR7 antagonist potency, late-stage follow-up, cell-based, fluorescence, dose response, set 6 (AID 588583); assay type: functional
T9 sequence (P48145 whole entry): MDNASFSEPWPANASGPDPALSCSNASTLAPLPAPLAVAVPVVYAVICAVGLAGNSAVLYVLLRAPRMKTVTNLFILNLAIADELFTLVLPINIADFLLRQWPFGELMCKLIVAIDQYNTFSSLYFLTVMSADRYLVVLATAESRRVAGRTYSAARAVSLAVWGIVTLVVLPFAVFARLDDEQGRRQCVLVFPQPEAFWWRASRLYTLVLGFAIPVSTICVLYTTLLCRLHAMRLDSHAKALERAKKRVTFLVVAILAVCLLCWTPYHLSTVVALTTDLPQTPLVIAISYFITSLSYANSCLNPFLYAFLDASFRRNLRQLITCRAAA

[25] = target: Aurora kinase B (Homo sapiens, UniProt Q96GD4); assay type: functional
Sequence of Aurora kinase B (Q96GD4 whole entry): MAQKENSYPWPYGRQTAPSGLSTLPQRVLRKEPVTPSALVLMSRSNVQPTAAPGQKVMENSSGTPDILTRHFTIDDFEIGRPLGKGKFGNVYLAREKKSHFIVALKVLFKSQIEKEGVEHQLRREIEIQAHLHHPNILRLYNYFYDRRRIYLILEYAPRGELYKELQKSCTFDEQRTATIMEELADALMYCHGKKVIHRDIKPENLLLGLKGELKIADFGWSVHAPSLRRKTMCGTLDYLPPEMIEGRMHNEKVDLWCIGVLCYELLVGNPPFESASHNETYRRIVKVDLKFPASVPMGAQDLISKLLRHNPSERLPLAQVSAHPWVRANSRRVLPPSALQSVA

[26] = target: Aurora kinase A (Homo sapiens, UniProt O14965); assay type: functional;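 further: value from the Navigating the Kinome kinase panel profiling, panel entry STK6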
[27] = target: Hepatocyte nuclear factor 4-alpha (Homo sapiens, UniProt P41235); assay type: functional, cell-based;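 further: biochemical luminescence-based dose-response counterscreen measuring inhibition of HNF4 dimerization, run alongside a screen for blockers of ABHD5–perilipin-5 interaction; split luciferase complementation of HNF4 fusion proteins in cell lysate measuring dimerization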
Sequence of Hepatocyte nuclear factor 4-alpha (P41235 whole entry, the tested form may be a part): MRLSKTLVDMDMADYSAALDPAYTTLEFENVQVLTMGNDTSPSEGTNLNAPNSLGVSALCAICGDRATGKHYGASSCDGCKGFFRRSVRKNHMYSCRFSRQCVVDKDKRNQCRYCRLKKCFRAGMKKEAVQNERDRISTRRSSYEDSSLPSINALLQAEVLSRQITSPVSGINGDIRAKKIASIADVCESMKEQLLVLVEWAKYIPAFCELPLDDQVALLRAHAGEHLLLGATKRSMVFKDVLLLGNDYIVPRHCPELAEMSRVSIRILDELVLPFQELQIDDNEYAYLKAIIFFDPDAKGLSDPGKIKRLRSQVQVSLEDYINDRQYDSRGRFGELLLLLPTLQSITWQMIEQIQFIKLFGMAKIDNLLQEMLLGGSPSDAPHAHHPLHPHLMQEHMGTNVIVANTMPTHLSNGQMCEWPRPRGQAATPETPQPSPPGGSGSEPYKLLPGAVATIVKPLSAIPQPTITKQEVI

SMILES: COc1ccc(-c2cc3nc(-c4ccccc4)cc(N4CCC5(CC4)OCCO5)n3n2)cc1
- IC50 [1]: > 49.8 µM (inactive)
- IC50 [2]: > 66.2 µM (inactive)
- IC50 [3]: 10.8 µM (inactive)
- IC50 [4]: 23.6 µM (inactive)
- IC50 [5]: 5.7 µM (active)
- IC50 [6]: > 50 µM (inactive)

SMILES: CCOCCCNc1nc(-c2ccccc2)nc2ccccc12
- IC50 [7]: 12.3 µM (active)
- IC50 [8]: 21.1 µM (inactive)

SMILES: CCn1cc(Br)c(C(=O)Nc2ccccc2C(=O)OC)n1
- IC50 [9]: 10.5 µM (inactive)
- IC50 [10]: 35.9 µM (inactive)
- IC50 [11]: 35.9 µM (inactive)

SMILES: CSc1nc(N)c(N=Nc2ccc([As](=O)(O)O)cc2)c(O)n1
- IC50 [12]: 57.3 µM (active)
- IC50 [13]: 4.99 µM (active)
- IC50 [14]: 11.4 µM (active)
- IC50 [15]: 39.9 µM (active)
- IC50 [16]: 9.91 µM (active)

SMILES: C=CCNC(=O)c1cccc2c1C(=O)c1ccc(N3CCOCC3)cc1S2(=O)=O
- EC50 [17]: > 53 µM (inactive)
- IC50 [18]: > 47.1 µM (inactive)
- IC50 [19]: 13.9 µM (active)
- IC50 [20]: 13.2 µM (active)

SMILES: O=C1C(=O)c2c(ccc3ccccc23)-c2ccccc21
- EC50 [21]: > 104 µM (inactive)
- IC50 [22]: 1.34 µM (active)

SMILES: Cc1ccccc1Cn1ncc(Cl)c(C(C#N)c2ccccc2)c1=O (centres undefined)
- IC50 [23]: 0.484 µM (active)
- IC50 [24]: 0.484 µM (active)

SMILES: N#CC(c1ccc(Cl)cc1F)c1c(Cl)cnn(Cc2cccc3ccccc23)c1=O (centres undefined)
- IC50 [23]: 0.594 µM (active)
- IC50 [24]: 0.594 µM (active)

SMILES: Cc1oc2ncnc(N)c2c1-c1ccc(NC(=O)Nc2cc(C(F)(F)F)ccc2F)cc1
- Ki [25]: 0.00794 µM (active)
- Ki [26]: 0.126 µM (active)

SMILES: CC(c1nc2ccccc2[nH]1)n1c(=O)c(-c2ccco2)nc2ccccc21 (centres undefined)
- IC50 [27]: 2.93 µM (active)
